Like-named read-outs stand apart in the source and are kept apart here. Marks after values point to notes of the source that are not given here.
Columns and labels:
[1] = test system: acute EAE in the Lewis rat; test: Prophylactic effect of glyceryl trinervonate on acute EAE (Comparative Example); format: in vivo
Protocol: Prophylactic effects of glyceryl trinervonate (GTN, Description 4) were assessed on acute EAE in the Lewis rat. Induction and Assessment of EAE was as for Example 4. Dosing regime involved oral administration in Miglyol 810 five days prior to inoculation and for 20 days post-inoculation. (Refer to Example 8 regarding insignificance of use of PBS or Miglyol vehicles).

[2] = test system: neurological EAE in the Lewis rat
Protocol: Male Lewis rats, weighing 230-280 g on the day of inoculation, were injected in each rear footpad with 0.1 ml of an emulsion containing equal parts of guinea pig spinal cord; phosphate buffered saline (PBS) and incomplete Freund's adjuvant supplemented with 10 mg/ml Mycobacterium tuberculosis H37Ra.
(§5) Animals were weighed daily and assessed for neurological disease from day 7 post-inoculation (PI). Rats displaying symptoms of EAE were scored as follows: 1: flaccid tail (FT), 2: hind limb hypotonia (HLH), 3: partial hind limb paralysis (PHLP), 4: complete hind limb paralysis (CHLP), 5: moribund or dead.
NA:GLA (neat oil) was orally administered 5 days prior to inoculation and continued for 25 days PI, at a dose of 750 mg/kg body weight/day and 1000 mg/kg body weight/day. NA:DHA (neat oil) was given by an identical dosing regime at a dose of 500 mg/kg body weight/day. Control-sensitised animals received PBS vehicle or were undosed. Undosed, vehicle and low dose NA:GLA treatments contained 7 animals. Four rats received high dose NA:GLA and 3 rats were dosed with NA:DHA.

[3] = Nervonic acid composition of total polar lipid from rat brain (Example 9); format: in vivo; conditions: after Example 6 treatments; NA:GLA at both low and high doses
Protocol: (§1) Upon termination of certain biological evaluations, rat or mice brains were extracted and the fatty acid composition of total polar lipids from rat/mouse brain was determined.
(§2) Biological material was sent for analysis to Dr J. Hendersen at the University of Stirling, Institute of Aquaculture, Scotland. Analyses were carried out on two batches of experiments (detailed respectively in Example 6 and Example 7).

[4] = test system: chronic EAE in the Biozzi mouse model; test: NA:NA and NA:GLA in ethyl oleate in chronic relapsing EAE (Example 7); format: in vivo; conditions: for AG: Percentage of mice in the group / CFT: Percentage of mice in the group / CHLP: Percentage of mice in the group / HLH: Percentage of mice in the group / PFT: Percentage of mice in the group / PHLP: Percentage of mice in the group: ethyl oleate vehicle
Protocol: (§3) Male Biozzi mice weighing 30-35 g were injected in each flank with 0.15 mL of an emulsion containing lyophilised mouse spinal cord, phosphate buffered saline and incomplete Freund's adjuvant supplemented with Mycobacterium butyricum and Mycobacterium tuberculosis H37Ra.
(§4) 1: Partial Flaccid Tail (PFT), 2: Complete Flaccid Tail (CFT), 3: Impaired Righting Reflex (IRR), 4: Ataxic Gait (AG), 5: Hind Limb Hypotonia (HLH), 6: Partial Hind Limb Paralysis (PHLP), 7: Complete Hind Limb Paralysis (CHLP), 8: Moribund (M), 9: Dead (D).

[5] = Miscibility / physical state of oral compositions in vehicle; format: physicochemical; conditions: room temperature (about 20° C.); dilution in vehicle
Excerpt: Formulations of the present invention suitable for oral administration may be in the form of discrete units such as capsules, cachets, tablets or lozenges, each containing a predetermined amount of the active ingredient; in the form of a powder or granules; in the form of a solution or a suspension in an aqueous liquid or non-aqueous liquid; or in the form of an oil-in-water emulsion or a water-in-oil emulsion. The active ingredient may also be in the form of a bolus, electuary or paste. For such formulations, a range of dilutions of the active ingredient in the vehicle is suitable, such as from 1% to 99%, preferably 5% to 50% and more preferably 10% to 25% dilution. Depending upon the level of dilution, the formulation will be either a liquid at room temperature (in the region of about 20° C.) or a low-melting solid.

[6] = test system: CREAE in the Biozzi mouse model; test: NA:NA and NA:GLA in Miglyol 810 in CREAE (Example 8); format: in vivo
Protocol: as §3, §4
Therefore, Miglyol appeared well-suited for use as a vehicle in subsequent studies to determine the efficacy of compounds in CREAE. Therefore, using Miglyol 810 as the new vehicle, prophylactic effects of NA:NA and NA:GLA were re-assessed on CREAE in the Biozzi mouse model (90% dilution, 1000 mg/kg/day, up to 43 days PI).

[7] = Nervonic acid composition of total polar lipid from mouse brain (Example 9); format: in vivo; conditions: CREAE-inoculated mice
Protocol: as §1, §2

[8] = test system: neurological EAE in the Lewis rat; test: NA:NA (ethyl oleate formulation) in acute EAE (Example 5)
Protocol: Male Lewis rats, weighing 240-360 g on the day of inoculation, were injected in each rear footpad with 0.1 ml of an emulsion containing equal parts of guinea pig spinal cord, phosphate buffered saline (PBS) and incomplete Freund's adjuvant supplemented with 10 mg/ml Mycobacterium tuberculosis H37Ra.
as §5
Control-sensitised animals received ethyl oleate vehicle or were undosed, and each treatment contained 10 animals.
Students t-test was used to assess significant differences in neurological scores and the Fishers exact probability test for the presence or absence of symptoms.

[9] = Biozzi mouse, 10% w/w in ethyl oleate, 1000 mg/kg body weight/day
[10] = acute phase, Biozzi mouse, 10% w/w in ethyl oleate, 1000 mg/kg body weight/day
[11] = relapse phase, Biozzi mouse, 10% w/w in ethyl oleate, 1000 mg/kg body weight/day
[12] = acute phase, Miglyol 810 vehicle, 1000 mg/kg/day
[13] = acute phase, Miglyol 810 vehicle, n=12, NA:GLA n=11
[14] = relapse phase, Miglyol 810 vehicle, 1000 mg/kg/day
[15] = relapse phase, Miglyol 810 vehicle, NA:GLA n=9, NA:NA n=11
[16] = 10% w/w in ethyl oleate, 1000 mg/kg body weight/day
[17] = 10% w/w in ethyl oleate, oral 1000 mg/kg body weight/day, n=10

With `CCCCCCCC/C=C/CCCCCCCCCCCCCC(=O)OCC(COC(=O)CCCCCCCCCCCCC/C=C/CCCCCCCC)OC(=O)CCCCCCCCCCCCC/C=C/CCCCCCCC` [GTN, Glyceryl Trinervonate] the “onset and loss of symptoms together with duration of the disease” value ([1]; compared to vehicle or undosed groups) was “not significantly different from vehicle or undosed groups”, the “adverse effect (body weight gain until day 10)” value ([1]; dietary administered) was “did not induce any major adverse effect” and the “effect on parameters associated with neurological deficits in EAE-diseased rats” value ([1]; oral in Miglyol 810) was “did not significantly affect any parameter”. For the same molecule, the “No. of diseased rats” value ([1]; oral in Miglyol 810, 5 days prior to inoculation and 20 days PI, n=10) was 10/10, the “CFT: Percentage of rats in the group” value ([1]; oral in Miglyol 810, n=10) was 100% and the “CHLP: Percentage of rats in the group” value ([1]; oral in Miglyol 810, n=10) was 40%. The “HLH: Percentage of rats in the group” value ([1]; oral in Miglyol 810, n=10) was 90%, the “MD: Percentage of rats in the group” value ([1]; oral in Miglyol 810, n=10) was 0% and the “Mean day of symptom loss” value ([1]; oral in Miglyol 810, n=10) was 17.0 ± 1.2 days. The “Mean day of symptom onset” value ([1]; oral in Miglyol 810, n=10) was 11.2 ± 1.2 days, the “Mean duration of symptoms” value ([1]; oral in Miglyol 810, n=10) was 5.8 ± 1.1 days and the Number of dead ([1]; oral in Miglyol 810, n=10) was 0/10. For the same molecule, the “PFT: Percentage of rats in the group” value ([1]; oral in Miglyol 810, n=10) was 100% and the “PHLP: Percentage of rats in the group” value ([1]; oral in Miglyol 810, n=10) was 70%.

For `CCC=CCC=CCC=CCC=CCC=CC/C=C\CCC(=O)OCCCOC(=O)CCCCCCCCCCCCC/C=C\CCCCCCCC` [NA:DHA, 1-(z-15-tetracosenoyloxy)-3-(z-4,7,10,13,16,19-docosahexaenoyloxy)propane], the “CHLP: Number of animals showing symptoms/total” value ([2]; 500 mg/kg/day) was 3/3, the “FT: Number of animals showing symptoms/total” value ([2]; 500 mg/kg/day) was 3/3 and the “HLH: Number of animals showing symptoms/total” value ([2]; 500 mg/kg/day) was 3/3. For the same molecule, the “PHLP: Number of animals showing symptoms/total” value ([2]; 500 mg/kg/day) was 3/3, the daily score ([2]; 500 mg/kg/day) was “enhanced compared to levels noted for control and NA:GLA-treated animals” and the “development of CHLP” value ([2]; 500 mg/kg/day) was 11.3±1.3. The “effect on neurological symptoms” value ([2]; 500 mg/kg/day) was “intensified neurological symptoms”, the “Mean day of final symptom loss (±SD)” value ([2]; neat oil oral 500 mg/kg/day) was 19.3 ± 1.2 days and the “Mean day of symptom onset (±SD)” value ([2]; neat oil oral 500 mg/kg/day) was 10.3 ± 0.6 days. The Number of dead/total ([2]; neat oil oral 500 mg/kg/day) was 0/3, the Number diseased/total ([2]; neat oil oral 500 mg/kg/day, 5 days prior to inoculation and 25 days PI) was 3/3 and the “NA levels in rat brain lipids compared to normal, undosed and vehicle treated animals” value [3] was “did not enhance the NA levels”.

With `CCCCCCCC/C=C\CCCCCCCCCCCCCC(=O)OCCCOC(=O)CCCCCCCCCCCCC/C=C\CCCCCCCC` [NA:NA, 1,3-di-(z-15-tetracosenoyloxy)propane] the “Acute and relapse symptoms (mean neurological scores)” value [4, 9] was “completely abolished”, the onset of relapse [4, 9] was “delayed, but not significantly” and the “Mean day of symptom loss” value [4, 10] was 24.7 ± 3.2 days. For the same molecule, the “Mean day of symptom onset” value [4, 10] was 22.3 ± 3.8 days, the “Mean duration of symptoms” value [4, 10] was 2.3 ± 1.2 days and the “Number of dead mice” value [4, 10] was 0/10. The “No. of diseased mice” value ([4]; acute phase, Biozzi mouse, […], oral 1000 mg/kg body weight/day, 5 days prior to inoculation and 43 days PI, n=10) was 3/10, the “AG: Percentage of mice in the group” value ([4]; acute phase, n=10) was 20% and the “CFT: Percentage of mice in the group” value ([4]; acute phase, n=10) was 0%. For the same molecule, the “CHLP: Percentage of mice in the group” value ([4]; acute phase, n=10) was 0%, the “HLH: Percentage of mice in the group” value ([4]; acute phase, n=10) was 10% and the “PFT: Percentage of mice in the group” value ([4]; acute phase, n=10) was 10%. The “PHLP: Percentage of mice in the group” value ([4]; acute phase, n=10) was 0%, the “Mean day of symptom onset” value [4, 11] was 43.3 ± 1.2 days and the “No. of diseased mice” value [4, 11] was 3/10. For the same molecule, the “Number of dead mice” value [4, 11] was 1/10, the “AG: Percentage of mice in the group” value ([4]; relapse phase, n=10) was 30% and the “CFT: Percentage of mice in the group” value ([4]; relapse phase, n=10) was 0%. The “CHLP: Percentage of mice in the group” value ([4]; relapse phase, n=10) was 0%, the “HLH: Percentage of mice in the group” value ([4]; relapse phase, n=10) was 30% and the “PFT: Percentage of mice in the group” value ([4]; relapse phase, n=10) was 20%. The “PHLP: Percentage of mice in the group” value ([4]; relapse phase, n=10) was 0%, the “concentration at which compositions are liquids at room temperature” value [5] was no more than 25% and the “effect on the neurological course of CREAE” value ([6]; Biozzi mouse, Miglyol 810 vehicle, 1000 mg/kg/day) was “did not seem significantly to alter the course of CREAE”. For the same molecule, the “No. of diseased mice” value ([6]; acute phase, Biozzi mouse, Miglyol 810 vehicle (90% dilution), 1000 mg/kg/day, up to 43 days PI) was 12/12, the “Mean day of symptom loss” value [6, 12] was 26.3 ± 1.0 days and the “Mean day of symptom onset” value [6, 12] was 17.1 ± 1.9 days. For the same molecule, the “Mean duration of symptoms” value [6, 12] was 9.2 ± 1.6 days, the “Number of dead mice” value [6, 12] was 1/12 and the “AG: Percentage of mice in the group” value [6, 13] was 100%. The “CFT: Percentage of mice in the group” value [6, 13] was 100%, the “CHLP: Percentage of mice in the group” value [6, 13] was 58% and the “D (dead): Percentage of mice in the group” value [6, 13] was 8%. For the same molecule, the “HLH: Percentage of mice in the group” value [6, 13] was 100%, the “IRR: Percentage of mice in the group” value [6, 13] was 100% and the “M (moribund): Percentage of mice in the group” value [6, 13] was 0%. For the same molecule, the “PFT: Percentage of mice in the group” value [6, 13] was 100%, the “PHLP: Percentage of mice in the group” value [6, 13] was 75% and the “Mean day of symptom loss” value [6, 14] was 44.0 ± 3.6 days. The “Mean day of symptom onset” value [6, 14] was 34.3 ± 6.6 days, the “Mean duration of symptoms” value [6, 14] was 13.7 ± 4.0 days and the “No. of diseased mice” value [6, 14] was 9/11. For the same molecule, the “Number of dead mice” value [6, 14] was 3/11, the “AG: Percentage of mice in the group” value [6, 15] was 82% and the “CFT: Percentage of mice in the group” value [6, 15] was 82%. The “CHLP: Percentage of mice in the group” value [6, 15] was 73%, the “D (dead): Percentage of mice in the group” value [6, 15] was 27% and the “HLH: Percentage of mice in the group” value [6, 15] was 82%. For the same molecule, the “IRR: Percentage of mice in the group” value [6, 15] was 82%, the “M (moribund): Percentage of mice in the group” value [6, 15] was 0% and the “PFT: Percentage of mice in the group” value [6, 15] was 82%. The “PHLP: Percentage of mice in the group” value [6, 15] was 73%, the “NA levels in mouse brain lipids compared to undosed and vehicle” value [7] was “enhancement of the NA levels in brain lipids” and the “CHLP: Number of animals showing symptoms/total” value [8, 16] was 1/10. The “FT: Number of animals showing symptoms/total” value [8, 16] was 6/10**, the “HLH: Number of animals showing symptoms/total” value [8, 16] was 4/10*** and the Neurological scores [8, 16] was “consistently lower compared to values recorded for undosed and vehicle-treated animals”. The “PHLP: Number of animals showing symptoms/total” value [8, 16] was 3/10, the “animals that experienced symptoms of disease” value [8, 16] was 60% and the “effect on incidence of disease” value [8, 16] was “significantly reduces the incidents of disease”. For the same molecule, the “Mean day of final symptom loss (±SD)” value [8, 17] was 16.3 ± 1.0 days, the “Mean day of symptom onset (±SD)” value [8, 17] was 12.3 ± 0.8 days and the “Mean duration of symptoms (day ± SD)” value [8, 17] was 4.0 ± 1.2 days. For the same molecule, the Number of dead/total [8, 17] was 0/10 and the Number diseased/total ([8]; […], oral 1000 mg/kg body weight/day, 5 days prior to inoculation and 22 days PI, n=10) was 6/10*.

For `CCCCCCCC/C=C\CCCCCCCC(=O)OCC` [ethyl oleate], the “effect of the vehicle on incidence and severity of chronic relapsing EAE” value ([4]; Biozzi mouse, ethyl oleate vehicle alone, compared to undosed) was “significantly reduced the incidence and severity of the acute and relapsing phases”.
